Laboratory results from patent US9556237B2 (priority 2012, dated 2017).

Tests used:
RVFV-MP12 = format: cell-based, Rift Valley fever virus
EBOV-eGFP = format: cell-based, Zaire ebolavirus

Compound | inhibition of RVFV-MP12 (plaque reduction), in words (RVFV-MP12) | other results
CSCC[C@H](NC(=O)[C@H](CC(C)C)NC(=O)CNC(=O)[C@H](CO)NC(=O)[C@H](Cc1ccccc1)NC(=O)[C@H](Cc1c[nH]c2ccccc12)NC(=O)[C@H](CC(=O)O)NC(=O)[C@H](Cc1ccccc1)NC(=O)[C@H](Cc1ccccc1)NC(=O)[C@H](CC(N)=O)NC(=O)[C@@H](N)Cc1c[nH]c2ccccc12)C(=O)N[C@@H](CO)C(=O)N[C@@H](Cc1c[nH]c2ccccc12)C(=O)N[C@@H](Cc1ccccc1)C(=O)NCC(=O)NCC(=O)N1CCC[C@H]1C(=O)N[C@@H](CC(C)C)C(=O)N[C@@H](CCCCN)C(=O)O [RVFV-6, WNFFDWFSGLMSWFGGPLK] |  | impact on cell proliferation (MTT assay) (Vero E6 cells): little negative impact on cell proliferation
FVGAAVSCDAAFLNLTGCY [RVFV-4] | Only RVFV-5 demonstrated any inhibition | 
LGASSSRFTNWGSVSLSLD [RVFV-3] | Only RVFV-5 demonstrated any inhibition | 
SGSWNFFDWFSGLMSWFGGPL [RVFV-10] |  | inhibition of EBOV (GFP signal) (EBOV-eGFP): strongly inhibit
WGCGCFNVNPSCLFVHTYL [RVFV-2] | Only RVFV-5 demonstrated any inhibition | 
YWTGSISPKCLSSRRCHLV [RVFV-1] | Only RVFV-5 demonstrated any inhibition | 
